# Measured values taken from patent US10285405B2, “Oil carrying particulate matter and uses thereof” (Nobactra Israel Ltd., priority 2013, dated 2019).
# Columns and labels:
# The tested bacteria = assay: Disc diffusion method, positive control (bacterium not specified); assay type: cell-based; conditions: positive control 3% H2O2 solution, 27° C., 48 hours
# Description: Bacteria were grown in nutrient broth test tubes at 27° C. for 24 hrs. The paper discs were sterilized by autoclave in preparation for the disc diffusion method. Each bacteria ([…]), was placed on Nutrient agar (NA) plates and allowed to dry for 3-5 minutes. The paper discs were saturated in 100% concentration of the oregano essential oil (20 ul), and then placed onto each NA plate freshly coated with bacteria. The positive control used was 3% H2O2 solution and the negative control was DI water. The plates were incubated at 27° C. for 48 hours. The zone of inhibition was measured by standard ruler.
# pepper plants = assay: Spraying the emulsions on pepper plants for phytotoxicity symptoms; assay type: in vivo
# [1] = plants sprayed with emulsion of 25% oregano oil with 5% sesame oil made with the emulsifier, data not shown
Molecule,Phytotoxicity on pepper plants (pepper plants; [1]),other results
"OO [P. control, H2O2]",,Inhibition zone (mm) (The tested bacteria): 8 mm
CCCCCCCCCCCCOS(=O)(=O)[O-].[Na+] [SDS],,Phytotoxicity on pepper plants (pepper plants; in vivo): phytotoxicity
CCCCCCCC/C=C\CCCCCCCC(=O)OCCOCC(OCCO)C1OCC(OCCO)C1OCCO (centres unmarked) [Tween 80],phytotoxicity,
"CCCCCCCCCCCCCCCCCC(=O)[O-].[Na+] [sodium stearate, Sodium Stearate]",very vital,
Triton X100,phytotoxicity,
